Here are results for four compounds from publication PMC12209699, “Waxy‐ or Putty‐Like Materials as a Novel Drug Preparation for Synthetic Cannabinoid Receptor Agonists: Detection in Prisons and In Vitro Cannabinoid Receptor Activity” (Drug Testing and Analysis, 2024).

For one assay, the system named is CB1. The conditions noted are these: ref [4], [60], cited from earlier work; for EC50: earlier in vitro data, read-out: EC 50 at CB1; for E max at CB1: normalized to CP55,940.
Another assay deals with CB1 receptor (Homo sapiens, UniProt P21554). The experiment in a line: NanoBiT βarr2 recruitment bioassay at CB1 (HEK 293T cells stably expressing CB1‐βarr2). The settings on record: for E max at CB1: normalized to E max of CP55,940 (set at 100%).
Another assay deals with CB2 receptor (Homo sapiens, UniProt P34972). The assay can be described thus: NanoBiT βarr2 recruitment bioassay at CB2 (HEK 293T cells stably expressing CB2‐βarr2). The settings on record: for E max at CB2: normalized to E max of CP55,940 (set at 100%).

Where two headings read alike, the source gives them in different places.

CB1 receptor, sequence (P21554 whole entry): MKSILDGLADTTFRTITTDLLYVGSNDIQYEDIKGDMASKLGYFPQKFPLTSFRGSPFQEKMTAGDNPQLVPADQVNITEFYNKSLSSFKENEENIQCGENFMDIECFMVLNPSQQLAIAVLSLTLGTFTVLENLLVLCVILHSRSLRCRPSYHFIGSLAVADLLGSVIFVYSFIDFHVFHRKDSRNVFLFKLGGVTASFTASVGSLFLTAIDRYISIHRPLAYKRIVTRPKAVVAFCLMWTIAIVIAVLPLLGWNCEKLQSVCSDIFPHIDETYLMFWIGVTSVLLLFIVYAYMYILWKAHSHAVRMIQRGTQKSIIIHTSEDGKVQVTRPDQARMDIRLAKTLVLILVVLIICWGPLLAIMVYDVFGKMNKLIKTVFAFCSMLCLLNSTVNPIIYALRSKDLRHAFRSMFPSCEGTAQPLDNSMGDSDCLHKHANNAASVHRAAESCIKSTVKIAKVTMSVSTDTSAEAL
CB1 receptor, sequence (P32121 whole entry partner): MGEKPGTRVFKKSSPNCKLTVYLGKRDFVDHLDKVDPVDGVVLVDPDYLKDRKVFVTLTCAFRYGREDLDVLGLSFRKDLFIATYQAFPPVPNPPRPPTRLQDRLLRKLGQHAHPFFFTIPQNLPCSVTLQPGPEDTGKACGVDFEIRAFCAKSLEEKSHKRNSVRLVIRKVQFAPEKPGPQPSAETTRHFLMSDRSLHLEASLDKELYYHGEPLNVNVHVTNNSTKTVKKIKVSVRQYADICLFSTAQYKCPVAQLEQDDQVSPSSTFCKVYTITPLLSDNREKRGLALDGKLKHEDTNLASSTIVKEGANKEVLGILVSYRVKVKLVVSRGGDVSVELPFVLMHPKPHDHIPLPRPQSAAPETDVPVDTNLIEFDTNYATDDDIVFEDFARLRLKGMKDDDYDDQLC
CB2 receptor, sequence (P34972 whole entry): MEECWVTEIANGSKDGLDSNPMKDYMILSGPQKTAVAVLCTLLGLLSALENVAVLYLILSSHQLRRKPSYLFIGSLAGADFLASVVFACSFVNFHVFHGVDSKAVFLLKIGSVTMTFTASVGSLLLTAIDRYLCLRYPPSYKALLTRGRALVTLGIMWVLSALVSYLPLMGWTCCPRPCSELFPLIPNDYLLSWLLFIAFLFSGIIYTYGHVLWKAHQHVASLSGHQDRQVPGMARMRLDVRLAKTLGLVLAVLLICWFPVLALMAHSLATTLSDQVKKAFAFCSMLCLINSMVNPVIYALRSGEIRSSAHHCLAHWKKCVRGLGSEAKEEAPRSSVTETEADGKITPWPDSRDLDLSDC
CB2 receptor, sequence (P32121 whole entry partner): as the sequence (P32121 whole entry partner) above

With `CCCCn1nc(C(=O)N[C@H](C(N)=O)C(C)(C)C)c2ccccc21` [ADB‐BUTINACA], in the assay on CB1, the EC50 is 19 nM and the “E max at CB1” value is reported as 728%.
With `COC(=O)[C@@H](NC(=O)c1n[nH]c2ccccc12)C(C)(C)C` [MDMB‐INACA], the EC50 at CB1 receptor was 6.81 µM; on CB2 receptor, 55.2 nM. Also, the “E max at CB1” value on CB1 receptor (interval in brackets) is given as 268 (233–305) %. For the same compound, the “E max at CB2” value at CB2 receptor (interval in brackets) is reported as 150 (134–167) %.
As to `C=CCCCn1nc(C(=O)N[C@H](C(=O)OC)C(C)(C)C)c2ccccc21` [MDMB‐4en‐PINACA], in the assay with CB1, the EC50 is 1.88 nM and the “E max at CB1” value was 679%.
As to `CCCCCn1cc(C(=O)c2cccc3ccccc23)c2ccccc21` [JWH‐018], the “E max at CB1” value at CB1 receptor (interval in brackets) is given as 342 (300–385) %. For the same compound, the EC50 worked out at 0.0188 µM at CB1 receptor (read-out: EC 50 at CB1, βarr2 recruitment, three‐parameter logistic fit, interval in brackets) and 5.9 nM on CB2 receptor (read-out: EC 50 at CB2, βarr2 recruitment, three‐parameter logistic fit, interval in brackets). Further, at CB2 receptor (interval in brackets), the “E max at CB2” value is given as 71.9 (66–77.9) %.
